# Like-named read-outs stand apart in the source and are kept apart here.
# Key:
# [1] = tested on: K. pneumoniae NVT1001 gyrA/parC and gyrA/parC/ramR mutants and revertants; assay: Etest MIC of quinolones, gyrA/parC and gyrA/parC/ramR mutants and their revertants (Table 11); format: cell-based; settings: Klebsiella pneumoniae
# Source text: The allelic-exchange method was used to restore the wild-type gene in the K. pneumoniae NVT1001 mutants with constructed chromosome-mediated resistance mechanisms, as described by Tsai et al.^19 Briefly, a DNA fragment of the entire wild-type gene sequence along with flanking regions was amplified from K. pneumoniae NVT1001 using PCR with specific primers. The resulting PCR fragment was digested and then cloned into pUT-KB. For homologous recombination, this plasmid was transformed into E. coli S17-1 λpir^23 via electroporation and mobilized into the K. pneumoniae NVT1001 mutant via conjugation. […] After incubation in 20 mL BHI broth for 6 hours at 37° C. in the absence of kanamycin, the fully grown cultures were spread onto LB agar plates supplemented with 10% sucrose. After the double crossover occurred, the sucrose-resistant and kanamycin-susceptible colonies were selected, and the restoration of the wild-type gene was confirmed via DNA sequencing.
# (§1) The MICs of antibiotics were determined using the Etest (Biodisk AB, Sweden) according to the manufacturer's instructions. The MICs from the Etest, which fall between standard two-fold dilutions, were rounded up to the next highest two-fold value. The MICs of ceftazidime and cefotaxime against K. pneumoniae NVT1001 harbouring the pACYC177 plasmid with blaOXA-48 were further determined using a broth microdilution test according to the recommendations of the CLSI,^25 and the results were interpreted according to the breakpoints established by the CLSI in 2017.^25 Meanwhile, due to the lack of CLSI breakpoints in 2016 and 2017, the results for cephalothin were interpreted according to the breakpoints established by the CLSI in 2015,^26 and the results for moxifloxacin were interpreted according to the breakpoints established by the EUCAST in 2017.^27
# [2] = tested on: K. pneumoniae NVT1001 strains with QnrB, QnrS or AAC(6′)-Ib-cr plasmids; assay: Etest MIC of quinolones, GyrA/ParC mutations, ΔramR and/or QnrB, QnrS or AAC(6′)-Ib-cr (Table 12); format: cell-based; settings: Klebsiella pneumoniae
# Experimental: DNA fragments of the resistance genes along with their flanking regions were amplified from clinical plasmids via PCR with specific primer pairs. The resulting PCR fragments were digested and then cloned into the plasmid pACYC177 or pACYC184. The resulting plasmids were then transformed into K. pneumoniae strain NVT1001 via electroporation. The recombinant bacteria were plated onto LB agar plates containing kanamycin (50 mg/L) or chloramphenicol (50 mg/L), and the presence of the cloned gene was confirmed via PCR and DNA sequencing.
# as §1
# [3] = S83F/D87N/S80I::F83S/N87D/I80S revertant, read-out: MIC
# [4] = S83F/D87N/S80I::I80S revertant, read-out: MIC
# [5] = S83F/D87N/S80I::N87D revertant, read-out: MIC
# [6] = S83F/D87N/S80I::N87D/I80S revertant, read-out: MIC
# [7] = S83I/D87N/S80I::I80S revertant, read-out: MIC
# [8] = S83I/D87N/S80I::I83S/N87D/I80S revertant, read-out: MIC
# [9] = S83I/D87N/S80I::N87D revertant, read-out: MIC
# [10] = S83I/D87N/S80I::N87D/I80S revertant, read-out: MIC
# [11] = S83L/D87N/S80I::I80S revertant, read-out: MIC
# [12] = S83L/D87N/S80I::L83S/N87D/I80S revertant, read-out: MIC
# [13] = S83L/D87N/S80I::N87D revertant, read-out: MIC
# [14] = S83L/D87N/S80I::N87D/I80S revertant, read-out: MIC
# [15] = S83Y/D87N/S80I::I80S revertant, read-out: MIC
# [16] = S83Y/D87N/S80I::N87D revertant, read-out: MIC
# [17] = S83Y/D87N/S80I::N87D/I80S revertant, read-out: MIC
# [18] = S83Y/D87N/S80I::Y83S/N87D/I80S revertant, read-out: MIC
# [19] = ΔramR/S83I/D87N/S80I:: ramR/I83S revertant
# [20] = ΔramR/S83I/D87N/S80I:: ramR/I83S/I80S revertant
# [21] = ΔramR/S83I/D87N/S80I:: ramR/I83S/N87D revertant
# [22] = ΔramR/S83I/D87N/S80I::I83S/N87D/I80S revertant
# [23] = ΔramR/S83I/D87N/S80I::N87D revertant
# [24] = ΔramR/S83I/D87N/S80I::N87D/I80S revertant
# [25] = ΔramR/S83I/D87N/S80I::ramR/I83S/N87D/I80S
# [26] = AAC(6′)-Ib-cr on pACYC177, S83I mutant
# [27] = AAC(6′)-Ib-cr on pACYC177, S83I/D87N/S80I mutant
# [28] = AAC(6′)-Ib-cr on pACYC177, S83I/S80I mutant
# [29] = AAC(6′)-Ib-cr on pACYC177, WT (NVT1001), read-out: MIC
# [30] = AAC(6′)-Ib-cr on pACYC177, ΔramR mutant
# [31] = AAC(6′)-Ib-cr on pACYC177, ΔramR/S83I mutant
# [32] = AAC(6′)-Ib-cr on pACYC177, ΔramR/S83I/D87N/S80I mutant
# [33] = AAC(6′)-Ib-cr on pACYC177, ΔramR/S83I/S80I mutant
# [34] = QnrB on pACYC177, S83I/D87N/S80I mutant
# [35] = QnrB on pACYC177, S83I/S80I mutant
# [36] = QnrB on pACYC177, WT (NVT1001), read-out: MIC
# [37] = QnrB on pACYC177, ΔramR/S83I mutant
# [38] = QnrB on pACYC177, ΔramR/S83I/D87N/S80I mutant
# [39] = QnrB on pACYC177, ΔramR/S83I/S80I mutant
# [40] = QnrS on pACYC177, S83I/D87N/S80I mutant
# [41] = QnrS on pACYC177, S83I/S80I mutant
# [42] = QnrS on pACYC177, WT (NVT1001), read-out: MIC
# [43] = QnrS on pACYC177, ΔramR/S83I mutant
# [44] = QnrS on pACYC177, ΔramR/S83I/D87N/S80I mutant
# [45] = QnrS on pACYC177, ΔramR/S83I/S80I mutant
# [46] = no supplemental plasmid, S83I mutant
# [47] = no supplemental plasmid, S83I/D87N/S80I mutant
# [48] = no supplemental plasmid, S83I/S80I mutant
# [49] = no supplemental plasmid, WT (NVT1001), read-out: MIC
# [50] = no supplemental plasmid, ΔramR mutant
# [51] = no supplemental plasmid, ΔramR/S83I mutant
# [52] = no supplemental plasmid, ΔramR/S83I/D87N/S80I mutant
# [53] = no supplemental plasmid, ΔramR/S83I/S80I mutant
smiles,measurement,setting,value
"CCn1cc(C(=O)O)c(=O)c2ccc(C)nc21 [Nalidixic acid, nalidixic acid]",MIC,[1]; S83F/D87N/S80I mutant,> 256 µg/mL
same,MIC,[1]; [3],4 µg/mL
same,MIC,[1]; [4],> 256 µg/mL
same,MIC,[1]; [5],> 256 µg/mL
same,MIC,[1]; [6],> 256 µg/mL
same,MIC,[1]; S83I/D87N/S80I mutant,> 256 µg/mL
same,MIC,[1]; [7],> 256 µg/mL
same,MIC,[1]; [8],4 µg/mL
same,MIC,[1]; [9],> 256 µg/mL
same,MIC,[1]; [10],> 256 µg/mL
same,MIC,[1]; S83L/D87N/S80I mutant,> 256 µg/mL
same,MIC,[1]; [11],> 256 µg/mL
same,MIC,[1]; [12],4 µg/mL
same,MIC,[1]; [13],> 256 µg/mL
same,MIC,[1]; [14],> 256 µg/mL
same,MIC,[1]; S83Y/D87N/S80I mutant,> 256 µg/mL
same,MIC,[1]; [15],> 256 µg/mL
same,MIC,[1]; [16],> 256 µg/mL
same,MIC,[1]; [17],> 256 µg/mL
same,MIC,[1]; [18],8 µg/mL
same,MIC,[1]; ΔramR/S83I/D87N/S80I mutant,> 256 µg/mL
same,MIC,[1]; [19],> 256 µg/mL
same,MIC,[1]; [20],> 256 µg/mL
same,MIC,[1]; [21],8 µg/mL
same,MIC,[1]; [22],32 µg/mL
same,MIC,[1]; [23],> 256 µg/mL
same,MIC,[1]; [24],> 256 µg/mL
same,MIC,[1]; [25],8 µg/mL
same,MIC,[2]; [26],> 256 µg/mL
same,MIC,[2]; [27],> 256 µg/mL
same,MIC,[2]; [28],> 256 µg/mL
same,MIC,[2]; [29],4 µg/mL
same,MIC,[2]; [30],64 µg/mL
same,MIC,[2]; [31],> 256 µg/mL
same,MIC,[2]; [32],> 256 µg/mL
same,MIC,[2]; [33],> 256 µg/mL
same,MIC,"[2]; QnrB on pACYC177, S83I mutant",> 256 µg/mL
same,MIC,[2]; [34],> 256 µg/mL
same,MIC,[2]; [35],> 256 µg/mL
same,MIC,[2]; [36],32 µg/mL
same,MIC,"[2]; QnrB on pACYC177, ΔramR mutant",256 µg/mL
same,MIC,[2]; [37],> 256 µg/mL
same,MIC,[2]; [38],> 256 µg/mL
same,MIC,[2]; [39],> 256 µg/mL
same,MIC,"[2]; QnrS on pACYC177, S83I mutant",> 256 µg/mL
same,MIC,[2]; [40],> 256 µg/mL
same,MIC,[2]; [41],> 256 µg/mL
same,MIC,[2]; [42],16 µg/mL
same,MIC,"[2]; QnrS on pACYC177, ΔramR mutant",64 µg/mL
same,MIC,[2]; [43],> 256 µg/mL
same,MIC,[2]; [44],> 256 µg/mL
same,MIC,[2]; [45],> 256 µg/mL
same,MIC,[2]; [46],> 256 µg/mL
same,MIC,[2]; [47],> 256 µg/mL
same,MIC,[2]; [48],> 256 µg/mL
same,MIC,[2]; [49],4 µg/mL
same,MIC,[2]; [50],32 µg/mL
same,MIC,[2]; [51],> 256 µg/mL
same,MIC,[2]; [52],> 256 µg/mL
same,MIC,[2]; [53],> 256 µg/mL
"C[C@H]1COc2c(N3CCN(C)CC3)c(F)cc3c(=O)c(C(=O)O)cn1c23 [Levofloxacin, levofloxacin]",MIC,[1]; S83F/D87N/S80I mutant,8 µg/mL
same,MIC,[1]; [3],0.06 µg/mL
same,MIC,[1]; [4],0.5 µg/mL
same,MIC,[1]; [5],1 µg/mL
same,MIC,[1]; [6],0.5 µg/mL
same,MIC,[1]; S83I/D87N/S80I mutant,8 µg/mL
same,MIC,[1]; [7],1 µg/mL
same,MIC,[1]; [8],0.06 µg/mL
same,MIC,[1]; [9],4 µg/mL
same,MIC,[1]; [10],1 µg/mL
same,MIC,[1]; S83L/D87N/S80I mutant,8 µg/mL
same,MIC,[1]; [11],1 µg/mL
same,MIC,[1]; [12],0.06 µg/mL
same,MIC,[1]; [13],2 µg/mL
same,MIC,[1]; [14],1 µg/mL
same,MIC,[1]; S83Y/D87N/S80I mutant,4 µg/mL
same,MIC,[1]; [15],0.5 µg/mL
same,MIC,[1]; [16],1 µg/mL
same,MIC,[1]; [17],0.5 µg/mL
same,MIC,[1]; [18],0.06 µg/mL
same,MIC,[1]; ΔramR/S83I/D87N/S80I mutant,> 32 µg/mL
same,MIC,[1]; [19],0.5 µg/mL
same,MIC,[1]; [20],0.5 µg/mL
same,MIC,[1]; [21],0.06 µg/mL
same,MIC,[1]; [22],1 µg/mL
same,MIC,[1]; [23],> 32 µg/mL
same,MIC,[1]; [24],8 µg/mL
same,MIC,[1]; [25],0.06 µg/mL
same,MIC,[2]; [26],0.5 µg/mL
same,MIC,[2]; [27],8 µg/mL
same,MIC,[2]; [28],2 µg/mL
same,MIC,[2]; [29],0.06 µg/mL
same,MIC,[2]; [30],1 µg/mL
same,MIC,[2]; [31],8 µg/mL
same,MIC,[2]; [32],> 32 µg/mL
same,MIC,[2]; [33],> 32 µg/mL
same,MIC,"[2]; QnrB on pACYC177, S83I mutant",2 µg/mL
same,MIC,[2]; [34],> 32 µg/mL
same,MIC,[2]; [35],16 µg/mL
same,MIC,[2]; [36],1 µg/mL
same,MIC,"[2]; QnrB on pACYC177, ΔramR mutant",8 µg/mL
same,MIC,[2]; [37],> 32 µg/mL
same,MIC,[2]; [38],> 32 µg/mL
same,MIC,[2]; [39],> 32 µg/mL
same,MIC,"[2]; QnrS on pACYC177, S83I mutant",4 µg/mL
same,MIC,[2]; [40],> 32 µg/mL
same,MIC,[2]; [41],32 µg/mL
same,MIC,[2]; [42],1 µg/mL
same,MIC,"[2]; QnrS on pACYC177, ΔramR mutant",8 µg/mL
same,MIC,[2]; [43],> 32 µg/mL
same,MIC,[2]; [44],> 32 µg/mL
same,MIC,[2]; [45],> 32 µg/mL
same,MIC,[2]; [46],0.5 µg/mL
same,MIC,[2]; [47],8 µg/mL
same,MIC,[2]; [48],2 µg/mL
same,MIC,[2]; [49],0.06 µg/mL
same,MIC,[2]; [50],1 µg/mL
same,MIC,[2]; [51],16 µg/mL
same,MIC,[2]; [52],> 32 µg/mL
same,MIC,[2]; [53],> 32 µg/mL

# Reference: patent publication US10760110B2, “Antibiotic testing and screening system” (priority 2017, dated 2020)
